The structures appear in SMILES notation.

In this test the target is T1, Lysyl oxidase (Bos taurus, UniProt P33072).
T1 construct: The supernatant with lysyl oxidase activity is saved; from tissue; host or cells: bovine aorta (4 M urea extract)
T1 sequence (P33072 170-418): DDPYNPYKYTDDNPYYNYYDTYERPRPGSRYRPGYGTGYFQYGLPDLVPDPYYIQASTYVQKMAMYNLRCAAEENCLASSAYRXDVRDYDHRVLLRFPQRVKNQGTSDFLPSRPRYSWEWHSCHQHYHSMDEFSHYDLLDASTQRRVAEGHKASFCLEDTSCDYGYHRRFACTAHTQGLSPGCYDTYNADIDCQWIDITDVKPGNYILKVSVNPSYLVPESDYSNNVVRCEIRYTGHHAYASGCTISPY
Kind of test: Lysyl oxidase inhibition assay (fluorometric, cadaverine substrate, homovanillic acid/horseradish peroxidase). Type of test: biochemical. To be noted: lysyl oxidase preparation from bovine aorta, 10 minutes at 55°C, borate buffer pH = 8.2, read-out: IC₅₀. The procedure:
Lysyl oxidase preparation is obtained from bovine aorta by the procedures modified from M. A. Williams and H. M. Kagan, Anal. Biochem. 149, 430 - 437 (1985) and H. M. Kagan and K. A. Sullivan, Methods in Enzyml. 82, 637 - 650 (1982). The aorta is obtained fresh on the day of the enzyme preparation and is maintained at 4°C for the duration of its use in the experiments. The aorta is ground fine and is homogenized for 90 seconds in buffer (2.5 ml of a buffer consisting of 16 mM potassium phosphate and 1 mM phenylmethylsulfonyl fluoride/g of tissue) with 0.15 M NaCl added, then the mixture is centrifuged (20 minutes at 11,000 x g). The homogenization followed by centrifugation procedure is repeated with buffer plus 0.15 M NaCl, buffer alone, and buffer plus 1 M urea. After homogenization in 1 M urea, the mixture is stirred for 1 hour prior to centrifugation. The resulting pellet is homogenized in buffer plus 4 M urea, stirred for 18 hours, and centrifuged. The supernatant with lysyl oxidase activity is saved. The tissue is homogenized in buffer plus 4 M urea, stirred overnight, and centrifuged twice more. The supernatants with lysyl oxidase activity are saved.
The assay is adopted from that of P. C. Trackman, et al., Anal. Biochem. 113, 336 - 342 (1981). Each assay consists of two tubes, one that contains 0.2 mM β-aminopropionitrile, BAPN, from the start and one to which BAPN is added to quench the reaction. Lysyl oxidase preparation (0.150 ml), urea (0.300 ml, 4 M), buffer (0.930 ml, 200mM borate at pH = 8.2), homovanillic acid (0.020 ml of 50 mM solution), and horseradish peroxidase (0.010 ml of Sigma Type II at 5 mg/ml protein) are incubated for 2 minutes at 55°C in a test tube. Cadaverine (0.100 ml of 150 mM) and test compound, if any, is added and the incubation continued at 55°C for an additional 10 minutes. The test tubes containing this mixture are then cooled in a ice bath after adding BAPN to any tubes not containing it. The difference in fluorescence (excitation 315 nm and emission 425 nm) between corresponding tubes that received BAPN at 0 minutes and at 10 minutes is a measure of enzyme activity. A standard curve to determine the amount of cadaverine converted by lysyl oxidase is prepared as follows. Assay mixtures containing BAPN are made up as described and known amounts of hydrogen peroxide are added simultaneously with cadaverine and the fluorescence changes after 10 minutes reaction are determined.
Using this method the lysyl oxidase inhibiting activity expressed as IC₅₀ (inhibitory concentration), that is the concentration of test compound required to inhibit the enzyme activity by 50 per cent, was determined for various compounds of this invention.
For the compound `COc1ccc(/C(=C\F)CN)cc1OC` [(E)-2-(3,4-Dimethoxyphenyl)-3-fluoroallylamine], the IC50 was found to be 100 nM. Next, `COc1ccc(CCC/C(=C\F)CN)cc1OC` [(E)-2-(3,4-Dimethoxyphenylpropyl)-3-fluoroallylamine]: 0.1 nM; `NC/C(=C/F)CCc1ccc(F)cc1` [(E)-2-(4-Fluorophenethyl)-3-fluoroallylamine]: 0.1 nM; `NC/C(=C\F)CSc1ccccc1` [(E)-2-(Thiophenoxymethyl)-3-fluoroallylamine]: 0.1 nM.

With `CC(C)C/C(=C\Cl)CN` [(E)-2-Isobutyl-3-chloroallylamine], the IC50 was 100 nM. The same measure for `CC(C)C/C(=C\F)CN` [(E)-2-Isobutyl-3-fluoroallylamine]: 10 nM. As for `NC/C(=C/Cl)CCc1ccccc1` [(E)-2-Phenethyl-3-chloroallylamine], the IC50 is 10 nM. In the case of `NC/C(=C/Cl)c1ccccc1` [(E)-2-Phenyl-3-chloroallylamine], the IC50 came to 100 nM. The same measure for `NC/C(=C/F)c1ccccc1` [(E)-2-Phenyl-3-fluoroallylamine]: 1 nM. The same measure for `CCCCCCCCCCC/C(=C\F)CN` [(E)-2-Undecyl-3-fluoroallylamine]: 100 nM. The same measure for `CCNC/C(=C/F)c1ccc(OC)c(OC)c1` [(E)-N-Ethyl-2-(3,4-dimethoxyphenyl)-3-fluoroallylamine]: 1000 nM; for `NC/C(=C/F)c1cccs1` [(Z)-2-(2-Thienyl)-3-fluoroallylamine]: 1 nM; for `NC/C(=C/F)COc1ccc(Cl)c(Cl)c1` [(Z)-2-(3,4-Dichlorophenoxymethyl)-3-fluoroallylamine]: 1 nM.

Source of the values: patent EP0330218B1, “Inhibitors of lysyl oxidase” (MERRELL DOW PHARMACEUTICALS INC., priority 1988, dated 1989).
